Laboratory results reported in patent publication US11826373B2, “Methods for treatment of diseases” (Galera Labs, LLC, priority 2011, dated 2023).

Legend:
SD rats = experiment: Rat GC4403 7-day intravenous toxicity; assay type: in vivo
Protocol: GC4403 was Studied in a GLP toxicology study in which it was administered in 26 mM sodium bicarbonate/0.9% sodium chloride to SD rats (10/sex/group) IV (slow bolus 1 mL/kg/minute) at dosages of 0, 1, 3 or 10 mg/kg/day for 7 days (On Day 1, 1/10 male rats receiving 10 mg/kg/day died). The dosage was therefore decreased to 8 mg/kg/day on Day 2 for all surviving animals for the remainder of the study, and the original 10 mg/kg/day group was re-designated as the 8 mg/kg/day group. On Day 4, two females from the 8 mg/kg/day group also died. Clinical signs immediately following dose administration of 8 mg/kg/day were twitching, labored breathing, body drop and prostration. At the scheduled 1-hour observation time, animals appeared normal. Males and females given 8 mg/kg/day had decreased body weight gains, which were accompanied by decreased food consumption in the males only. […] Surviving rats were sacrificed, and all rats sacrificed or found dead were necropsied.

[1] = test system: healthy male and female subjects; experiment: Human Phase 1 single rising dose safety and tolerability of GC4403; assay type: in vivo
Protocol: In a Phase 1 randomized, double-blind, placebo-controlled single rising dose safety, tolerability and pharmacokinetics study, 54 healthy male and female subjects were dosed from 2.2 to 25 mg of GC4403 administered intravenously over 30 minutes. Disposition of GC4403 is multi-exponential and follows linear pharmacokinetics with generally proportional increases in AUC and Cmax with increasing dose over the dose ranges studied. […] GC4403 is excreted unchanged in the urine and accounts for approximately 9 to 17% of the dose administered. No significant cardiovascular or vital sign effects, no significant physical examination abnormalities, and no significant abnormalities in routine clinical laboratory assessments were observed. Facial tingling, generalized tingling, paraesthesias and facial warmth were reported in a dose responsive manner, occurring at the 16.7 and 25 mg GC4403 doses.

## [Cl][Mn-5]1234([Cl])[n+]5c6cccc5C[NH+]1[C@@H]1CCCC[C@H]1[NH+]2CC[NH+]3[C@@H]1CCCC[C@H]1[NH+]4C6 (stereo partly shown) [GC4403]
SD rats; 8 mg/kg/day group, Day 4
  mortality, females died: two
SD rats; 10 mg/kg/day, Day 1
  mortality, male rats died: 1/10
SD rats; rat, IV slow bolus injection, 7 days
  no observed toxic event level (NOTEL): 3 mg/kg/day
[1]; 2.2 mg, 4 subjects dosed
  Any Event (treatment-emergent adverse event): 1 (25) N (%)
  Conjunctivitis (treatment-emergent adverse event): 1 (25) N (%)
  Cough (treatment-emergent adverse event): 0 (0) N (%)
  Discolored Urine (treatment-emergent adverse event): 0 (0) N (%)
  Drowsiness (treatment-emergent adverse event): 0 (0) N (%)
  Facial Warmth (treatment-emergent adverse event): 0 (0) N (%)
  Feeling Drunk (treatment-emergent adverse event): 0 (0) N (%)
  Headache (treatment-emergent adverse event): 0 (0) N (%)
  Inj. Site Pressure (treatment-emergent adverse event): 0 (0) N (%)
  Inj. Site Reaction (treatment-emergent adverse event): 0 (0) N (%)
  Injection Site Pain (treatment-emergent adverse event): 0 (0) N (%)
  Lightheadedness (treatment-emergent adverse event): 0 (0) N (%)
  Paresthesia (treatment-emergent adverse event): 0 (0) N (%)
  Skin Tightness (treatment-emergent adverse event): 0 (0) N (%)
  Taste Perversion (treatment-emergent adverse event): 0 (0) N (%)
  Tingling (treatment-emergent adverse event): 0 (0) N (%)
  Tingling Mouth (treatment-emergent adverse event): 0 (0) N (%)
[1]; 3.3 mg, 4 subjects dosed
  Any Event (treatment-emergent adverse event): 2 (50) N (%)
  Conjunctivitis (treatment-emergent adverse event): 0 (0) N (%)
  Cough (treatment-emergent adverse event): 0 (0) N (%)
  Discolored Urine (treatment-emergent adverse event): 0 (0) N (%)
  Drowsiness (treatment-emergent adverse event): 0 (0) N (%)
  Facial Warmth (treatment-emergent adverse event): 0 (0) N (%)
  Feeling Drunk (treatment-emergent adverse event): 0 (0) N (%)
  Headache (treatment-emergent adverse event): 0 (0) N (%)
  Inj. Site Pressure (treatment-emergent adverse event): 0 (0) N (%)
  Inj. Site Reaction (treatment-emergent adverse event): 1 (25) N (%)
  Injection Site Pain (treatment-emergent adverse event): 0 (0) N (%)
  Lightheadedness (treatment-emergent adverse event): 1 (25) N (%)
  Paresthesia (treatment-emergent adverse event): 0 (0) N (%)
  Skin Tightness (treatment-emergent adverse event): 0 (0) N (%)
  Taste Perversion (treatment-emergent adverse event): 0 (0) N (%)
  Tingling (treatment-emergent adverse event): 0 (0) N (%)
  Tingling Mouth (treatment-emergent adverse event): 0 (0) N (%)
[1]; 4.9 mg, 4 subjects dosed
  Any Event (treatment-emergent adverse event): 1 (25) N (%)
  Conjunctivitis (treatment-emergent adverse event): 0 (0) N (%)
  Cough (treatment-emergent adverse event): 0 (0) N (%)
  Discolored Urine (treatment-emergent adverse event): 0 (0) N (%)
  Drowsiness (treatment-emergent adverse event): 0 (0) N (%)
  Facial Warmth (treatment-emergent adverse event): 0 (0) N (%)
  Feeling Drunk (treatment-emergent adverse event): 0 (0) N (%)
  Headache (treatment-emergent adverse event): 0 (0) N (%)
  Inj. Site Pressure (treatment-emergent adverse event): 0 (0) N (%)
  Inj. Site Reaction (treatment-emergent adverse event): 0 (0) N (%)
  Injection Site Pain (treatment-emergent adverse event): 0 (0) N (%)
  Lightheadedness (treatment-emergent adverse event): 0 (0) N (%)
  Paresthesia (treatment-emergent adverse event): 0 (0) N (%)
  Skin Tightness (treatment-emergent adverse event): 0 (0) N (%)
  Taste Perversion (treatment-emergent adverse event): 0 (0) N (%)
  Tingling (treatment-emergent adverse event): 0 (0) N (%)
  Tingling Mouth (treatment-emergent adverse event): 0 (0) N (%)
[1]; 7.4 mg, 4 subjects dosed
  Any Event (treatment-emergent adverse event): 3 (75) N (%)
  Conjunctivitis (treatment-emergent adverse event): 0 (0) N (%)
  Cough (treatment-emergent adverse event): 0 (0) N (%)
  Discolored Urine (treatment-emergent adverse event): 0 (0) N (%)
  Drowsiness (treatment-emergent adverse event): 0 (0) N (%)
  Facial Warmth (treatment-emergent adverse event): 0 (0) N (%)
  Feeling Drunk (treatment-emergent adverse event): 0 (0) N (%)
  Headache (treatment-emergent adverse event): 1 (25) N (%)
  Inj. Site Pressure (treatment-emergent adverse event): 1 (25) N (%)
  Inj. Site Reaction (treatment-emergent adverse event): 0 (0) N (%)
  Injection Site Pain (treatment-emergent adverse event): 0 (0) N (%)
  Lightheadedness (treatment-emergent adverse event): 0 (0) N (%)
  Paresthesia (treatment-emergent adverse event): 0 (0) N (%)
  Skin Tightness (treatment-emergent adverse event): 0 (0) N (%)
  Taste Perversion (treatment-emergent adverse event): 0 (0) N (%)
  Tingling (treatment-emergent adverse event): 0 (0) N (%)
  Tingling Mouth (treatment-emergent adverse event): 0 (0) N (%)
[1]; 11.1 mg, 4 subjects dosed
  Any Event (treatment-emergent adverse event): 0 (0) N (%)
  Conjunctivitis (treatment-emergent adverse event): 0 (0) N (%)
  Cough (treatment-emergent adverse event): 0 (0) N (%)
  Discolored Urine (treatment-emergent adverse event): 0 (0) N (%)
  Drowsiness (treatment-emergent adverse event): 0 (0) N (%)
  Facial Warmth (treatment-emergent adverse event): 0 (0) N (%)
  Feeling Drunk (treatment-emergent adverse event): 0 (0) N (%)
  Headache (treatment-emergent adverse event): 0 (0) N (%)
  Inj. Site Pressure (treatment-emergent adverse event): 0 (0) N (%)
  Inj. Site Reaction (treatment-emergent adverse event): 0 (0) N (%)
  Injection Site Pain (treatment-emergent adverse event): 0 (0) N (%)
  Lightheadedness (treatment-emergent adverse event): 0 (0) N (%)
  Paresthesia (treatment-emergent adverse event): 0 (0) N (%)
  Skin Tightness (treatment-emergent adverse event): 0 (0) N (%)
  Taste Perversion (treatment-emergent adverse event): 0 (0) N (%)
  Tingling (treatment-emergent adverse event): 0 (0) N (%)
  Tingling Mouth (treatment-emergent adverse event): 0 (0) N (%)
[1]; 16.7 mg, 4 subjects dosed
  Any Event (treatment-emergent adverse event): 2 (50) N (%)
  Conjunctivitis (treatment-emergent adverse event): 0 (0) N (%)
  Cough (treatment-emergent adverse event): 1 (25) N (%)
  Discolored Urine (treatment-emergent adverse event): 0 (0) N (%)
  Drowsiness (treatment-emergent adverse event): 0 (0) N (%)
  Facial Warmth (treatment-emergent adverse event): 0 (0) N (%)
  Feeling Drunk (treatment-emergent adverse event): 0 (0) N (%)
  Headache (treatment-emergent adverse event): 1 (25) N (%)
  Inj. Site Pressure (treatment-emergent adverse event): 0 (0) N (%)
  Inj. Site Reaction (treatment-emergent adverse event): 0 (0) N (%)
  Injection Site Pain (treatment-emergent adverse event): 1 (25) N (%)
  Lightheadedness (treatment-emergent adverse event): 0 (0) N (%)
  Paresthesia (treatment-emergent adverse event): 0 (0) N (%)
  Skin Tightness (treatment-emergent adverse event): 0 (0) N (%)
  Taste Perversion (treatment-emergent adverse event): 0 (0) N (%)
  Tingling (treatment-emergent adverse event): 2 (50) N (%)
  Tingling Mouth (treatment-emergent adverse event): 0 (0) N (%)
[1]; 25.0 mg, 12 subjects dosed
  Any Event (treatment-emergent adverse event): 10 (87.3) N (%)
  Conjunctivitis (treatment-emergent adverse event): 0 (0) N (%)
  Cough (treatment-emergent adverse event): 0 (0) N (%)
  Discolored Urine (treatment-emergent adverse event): 1 (8.3) N (%)
  Drowsiness (treatment-emergent adverse event): 1 (8.3) N (%)
  Facial Warmth (treatment-emergent adverse event): 1 (8.3) N (%)
  Feeling Drunk (treatment-emergent adverse event): 1 (8.3) N (%)
  Headache (treatment-emergent adverse event): 1 (8.3) N (%)
  Inj. Site Pressure (treatment-emergent adverse event): 1 (8.3) N (%)
  Inj. Site Reaction (treatment-emergent adverse event): 1 (8.3) N (%)
  Injection Site Pain (treatment-emergent adverse event): 4 (33.3) N (%)
  Lightheadedness (treatment-emergent adverse event): 2 (16.7) N (%)
  Paresthesia (treatment-emergent adverse event): 1 (8.3) N (%)
  Skin Tightness (treatment-emergent adverse event): 1 (8.3) N (%)
  Taste Perversion (treatment-emergent adverse event): 1 (8.3) N (%)
  Tingling (treatment-emergent adverse event): 3 (25.0) N (%)
  Tingling Mouth (treatment-emergent adverse event): 5 (41.7) N (%)
[1]; 2.2 to 25 mg IV over 30 minutes
  maximum tolerated dose (MTD): not established
[1]; healthy subjects
  tolerability of single doses up to 25 mg: no severe adverse events
